Assay results reported in ChEMBL document CHEMBL4359906, “Design and synthesis of new N-terminal fatty acid modified-antimicrobial peptide analogues with potent in vitro biological activity” (Eur J Med Chem, 2019).
Active and inactive are the calls of the source. The rule behind the calls is not given here.

Assays:
[1] = Cytotoxicity against mouse RAW264.7 cells assessed as cell proliferation at 8 uM after 1 hr by MTT assay relative to control; format: cell-based; settings: read-out: Activity
Staphylococcus aureus [2] = experiment: Antibacterial activity against Staphylococcus aureus ATCC 25923 after 18 hrs in presence of NaCl by CLSI based broth microdilution method (reference value: 4 microM); format: functional; settings: ATCC 25923, 18 h
Staphylococcus aureus [3] = experiment: Antibacterial activity against Staphylococcus aureus ATCC 25923 after 18 hrs in presence of MgCl2 by CLSI based broth microdilution method (reference value: 4 microM); format: functional; settings: ATCC 25923, 18 h
Pseudomonas aeruginosa [4] = experiment: Antibiofilm activity against Pseudomonas aeruginosa ATCC 27853 at 1 to 2 times of MIC after 24 hrs by crystal violet staining based assay; format: functional, organism-based
[5] = Cytotoxicity against mouse RAW264.7 cells assessed as cell proliferation at 16 uM after 1 hr by MTT assay relative to control; format: cell-based; settings: read-out: Activity
Pseudomonas aeruginosa [6] = experiment: Antibiofilm activity against Pseudomonas aeruginosa ATCC 27853 at 2 times of MIC after 24 hrs by crystal violet staining based assay; format: functional, organism-based
RAW264.7 = experiment: Cytotoxicity against mouse RAW264.7 cells assessed as cell proliferation at 16 uM after 1 hr by MTT assay; format: cell-based; settings: raw264.7, 1 h
Escherichia coli [7] = experiment: Antibacterial activity against Escherichia coli ATCC 25922 after 18 hrs in presence of NaCl by CLSI based broth microdilution method (reference value: 4 microM); format: functional; settings: ATCC 25922, 18 h
Escherichia coli [8] = experiment: Antibacterial activity against Escherichia coli ATCC 25922 after 18 hrs in presence of KCl by CLSI based broth microdilution method (reference value: 4 microM); format: functional; settings: ATCC 25922, 18 h
Escherichia coli [9] = experiment: Antibacterial activity against Escherichia coli ATCC 25922 after 18 hrs in presence of MgCl2 by CLSI based broth microdilution method (reference value: 4 microM); format: functional; settings: ATCC 25922, 18 h
Staphylococcus aureus [10] = experiment: Antibacterial activity against Staphylococcus aureus ATCC 25923 after 18 hrs in presence of NaCl by CLSI based broth microdilution method (reference value: 16 microM); format: functional; settings: ATCC 25923, 18 h
Staphylococcus aureus [11] = experiment: Antibacterial activity against Staphylococcus aureus ATCC 25923 after 18 hrs in presence of KCl by CLSI based broth microdilution method (reference value: 16 microM); format: functional; settings: ATCC 25923, 18 h
Staphylococcus aureus [12] = experiment: Antibacterial activity against Staphylococcus aureus ATCC 25923 after 18 hrs in presence of MgCl2 by CLSI based broth microdilution method (reference value: 16 microM); format: functional; settings: ATCC 25923, 18 h
Staphylococcus aureus [13] = experiment: Antibacterial activity against Staphylococcus aureus ATCC 25923 after 18 hrs in presence of FeCl3 by CLSI based broth microdilution method (reference value: 16 microM); format: functional; settings: ATCC 25923, 18 h
Escherichia coli [14] = experiment: Antimicrobial activity against Escherichia coli ATCC 25922 preincubated for 6 hrs in presence of 10% mouse serum and measured after 18 hrs by CLSI-based broth microdilution assay (reference value: 4 microM); format: functional
Staphylococcus aureus [15] = experiment: Antibacterial activity against Staphylococcus aureus ATCC 25923 after 18 hrs in presence of NaCl by CLSI based broth microdilution method (reference value: 128 microM); format: functional; settings: ATCC 25923, 18 h
Staphylococcus aureus [16] = experiment: Antibacterial activity against Staphylococcus aureus ATCC 25923 after 18 hrs in presence of KCl by CLSI based broth microdilution method (reference value: 128 microM); format: functional; settings: ATCC 25923, 18 h
Staphylococcus aureus [17] = experiment: Antibacterial activity against Staphylococcus aureus ATCC 25923 after 18 hrs in presence of MgCl2 by CLSI based broth microdilution method (reference value: 128 microM); format: functional; settings: ATCC 25923, 18 h
Staphylococcus aureus [18] = experiment: Antibacterial activity against Staphylococcus aureus ATCC 25923 after 18 hrs in presence of FeCl3 by CLSI based broth microdilution method (reference value: 128 microM); format: functional; settings: ATCC 25923, 18 h
[19] = Cytotoxicity against mouse RAW264.7 cells assessed as cell proliferation at 32 uM after 1 hr by MTT assay relative to control; format: cell-based; settings: read-out: Activity
Staphylococcus aureus [20] = experiment: Antibacterial activity against Staphylococcus aureus ATCC 25923 after 18 hrs in presence of NaCl by CLSI based broth microdilution method (reference value: 64 microM); format: functional; settings: ATCC 25923, 18 h
Staphylococcus aureus [21] = experiment: Antibacterial activity against Staphylococcus aureus ATCC 25923 after 18 hrs in presence of KCl by CLSI based broth microdilution method (reference value: 64 microM); format: functional; settings: ATCC 25923, 18 h
Staphylococcus aureus [22] = experiment: Antibacterial activity against Staphylococcus aureus ATCC 25923 after 18 hrs in presence of MgCl2 by CLSI based broth microdilution method (reference value: 64 microM); format: functional; settings: ATCC 25923, 18 h
Staphylococcus aureus [23] = experiment: Antibacterial activity against Staphylococcus aureus ATCC 25923 after 18 hrs in presence of FeCl3 by CLSI based broth microdilution method (reference value: 64 microM); format: functional; settings: ATCC 25923, 18 h
Escherichia coli [24] = experiment: Antimicrobial activity against Escherichia coli ATCC 25922 at 1 mM preincubated for 6 hrs in presence of 20 ug/ml chymotrypsin and measured after 18 hrs by microplate reader analysis; format: functional, organism-based
Escherichia coli [25] = experiment: Antibacterial activity against Escherichia coli ATCC 25922 after 18 hrs in presence of NaCl by CLSI based broth microdilution method (reference value: 64 microM); format: functional; settings: ATCC 25922, 18 h
Escherichia coli [26] = experiment: Antibacterial activity against Escherichia coli ATCC 25922 after 18 hrs in presence of KCl by CLSI based broth microdilution method (reference value: 64 microM); format: functional; settings: ATCC 25922, 18 h
Escherichia coli [27] = experiment: Antibacterial activity against Escherichia coli ATCC 25922 after 18 hrs in presence of FeCl3 by CLSI based broth microdilution method (reference value: 64 microM); format: functional; settings: ATCC 25922, 18 h
Staphylococcus aureus [28] = experiment: Antibacterial activity against Staphylococcus aureus ATCC 25923 after 18 hrs in presence of NaCl by CLSI based broth microdilution method (reference value: 32 microM); format: functional; settings: ATCC 25923, 18 h
Staphylococcus aureus [29] = experiment: Antibacterial activity against Staphylococcus aureus ATCC 25923 after 18 hrs in presence of KCl by CLSI based broth microdilution method (reference value: 32 microM); format: functional; settings: ATCC 25923, 18 h
Staphylococcus aureus [30] = experiment: Antibacterial activity against Staphylococcus aureus ATCC 25923 after 18 hrs in presence of MgCl2 by CLSI based broth microdilution method (reference value: 32 microM); format: functional; settings: ATCC 25923, 18 h
Escherichia coli [31] = experiment: Antimicrobial activity against Escherichia coli ATCC 25922 at 1 mM preincubated for 6 hrs in presence of 200 ug/ml chymotrypsin and measured after 18 hrs by microplate reader analysis; format: functional, organism-based
Escherichia coli [32] = experiment: Antimicrobial activity against Escherichia coli ATCC 25922 preincubated for 1 hr in presence of 10% mouse serum and measured after 18 hrs by CLSI-based broth microdilution assay (reference value: 64 microM); format: functional
Escherichia coli [33] = experiment: Antimicrobial activity against Escherichia coli ATCC 25922 preincubated for 6 hrs in presence of 10% mouse serum and measured after 18 hrs by CLSI-based broth microdilution assay (reference value: 64 microM); format: functional
Escherichia coli [34] = experiment: Antimicrobial activity against Escherichia coli ATCC 25922 at 1 mM preincubated for 6 hrs in presence of 2000 ug/ml chymotrypsin and measured after 18 hrs by microplate reader analysis; format: functional, organism-based
DNA = experiment: Binding affinity to Escherichia coli ATCC 25922 genomic DNA at 8 x MIC after 30 mins by agarose gel electrophoresis; format: nucleic-acid assay

## CCCCCCCCCCCC(=O)NCC(=O)N[C@@H](CC(C)C)C(=O)N[C@@H](CC(C)C)C(=O)N[C@H](CCCCN)C(=O)N[C@@H](CCCNC(=N)N)C(=O)N[C@H](C(=O)N[C@H](CCCCN)C(=O)N[C@H](C(=O)N[C@@H](CC(C)C)C(=O)N[C@@H](CC(C)C)C(N)=O)[C@@H](C)O)[C@@H](C)CC
[1]
  viability at 1 h, 8 µM: < 80%
Staphylococcus aureus [2]
  MIC: 4 µM
Staphylococcus aureus [3]
  MIC: 8 µM
Pseudomonas aeruginosa [4]
  inhibition: Active

## CCCCCCCCCC(=O)NCC(=O)N[C@@H](CC(C)C)C(=O)N[C@@H](CC(C)C)C(=O)N[C@H](CCCCN)C(=O)N[C@@H](CCCNC(=N)N)C(=O)N[C@H](C(=O)N[C@H](CCCCN)C(=O)N[C@H](C(=O)N[C@@H](CC(C)C)C(=O)N[C@@H](CC(C)C)C(N)=O)[C@@H](C)O)[C@@H](C)CC
[5]
  viability at 1 h, 16 µM: < 80%
Pseudomonas aeruginosa [6]
  inhibition: Active

## CCCCCCCC(=O)NC(Cc1cn(CCCC[C@H](NC(C)=O)C(=O)NCC(=O)N[C@@H](CC(C)C)C(=O)N[C@@H](CC(C)C)C(=O)N[C@H](CCCCN)C(=O)N[C@@H](CCCNC(=N)N)C(=O)N[C@H](C(=O)N[C@H](CCCCN)C(=O)N[C@H](C(=O)N[C@@H](CC(C)C)C(=O)N[C@@H](CC(C)C)C(N)=O)[C@@H](C)O)[C@@H](C)CC)nn1)C(=O)NCC(=O)N[C@@H](CC(C)C)C(=O)N[C@@H](CC(C)C)C(=O)N[C@H](CCCCN)C(=O)N[C@@H](CCCNC(=N)N)C(=O)N[C@H](C(=O)N[C@H](CCCCN)C(=O)N[C@H](C(=O)N[C@@H](CC(C)C)C(=O)N[C@@H](CC(C)C)C(N)=O)[C@@H](C)O)[C@@H](C)CC (stereo partly specified)
RAW264.7
  Activity: Toxic
Escherichia coli [7]
  MIC: 8 µM
Escherichia coli [8]
  MIC: 16 µM
Escherichia coli [9]
  MIC: 16 µM
Staphylococcus aureus [10]
  MIC: 32 µM
Staphylococcus aureus [11]
  MIC: 16 µM
Staphylococcus aureus [12]
  MIC: 16 µM
Staphylococcus aureus [13]
  MIC: 8 µM
Escherichia coli [14]
  MIC: 16 µM

## CCCC(=O)NC(Cc1cn(CCCC[C@H](NC(C)=O)C(=O)NCC(=O)N[C@@H](CC(C)C)C(=O)N[C@@H](CC(C)C)C(=O)N[C@H](CCCCN)C(=O)N[C@@H](CCCNC(=N)N)C(=O)N[C@H](C(=O)N[C@H](CCCCN)C(=O)N[C@H](C(=O)N[C@@H](CC(C)C)C(=O)N[C@@H](CC(C)C)C(N)=O)[C@@H](C)O)[C@@H](C)CC)nn1)C(=O)NCC(=O)N[C@@H](CC(C)C)C(=O)N[C@@H](CC(C)C)C(=O)N[C@H](CCCCN)C(=O)N[C@@H](CCCNC(=N)N)C(=O)N[C@H](C(=O)N[C@H](CCCCN)C(=O)N[C@H](C(=O)N[C@@H](CC(C)C)C(=O)N[C@@H](CC(C)C)C(N)=O)[C@@H](C)O)[C@@H](C)CC (stereo partly specified)
Staphylococcus aureus [15]
  MIC: > 128 µM
Staphylococcus aureus [16]
  MIC: 128 µM
Staphylococcus aureus [17]
  MIC: > 128 µM
Staphylococcus aureus [18]
  MIC: 128 µM

## CCCCCC(=O)NC(Cc1cn(CCCC[C@H](NC(C)=O)C(=O)NCC(=O)N[C@@H](CC(C)C)C(=O)N[C@@H](CC(C)C)C(=O)N[C@H](CCCCN)C(=O)N[C@@H](CCCNC(=N)N)C(=O)N[C@H](C(=O)N[C@H](CCCCN)C(=O)N[C@H](C(=O)N[C@@H](CC(C)C)C(=O)N[C@@H](CC(C)C)C(N)=O)[C@@H](C)O)[C@@H](C)CC)nn1)C(=O)NCC(=O)N[C@@H](CC(C)C)C(=O)N[C@@H](CC(C)C)C(=O)N[C@H](CCCCN)C(=O)N[C@@H](CCCNC(=N)N)C(=O)N[C@H](C(=O)N[C@H](CCCCN)C(=O)N[C@H](C(=O)N[C@@H](CC(C)C)C(=O)N[C@@H](CC(C)C)C(N)=O)[C@@H](C)O)[C@@H](C)CC (stereo partly specified)
[19]
  viability at 1 h, 32 µM: > 80%
Staphylococcus aureus [20]
  MIC: 128 µM
Staphylococcus aureus [21]
  MIC: 64 µM
Staphylococcus aureus [22]
  MIC: 64 µM
Staphylococcus aureus [23]
  MIC: 32 µM
Escherichia coli [24]
  Activity: Active

## CCCCCCCC(=O)NCC(=O)N[C@@H](CC(C)C)C(=O)N[C@@H](CC(C)C)C(=O)N[C@H](CCCCN)C(=O)N[C@@H](CCCNC(=N)N)C(=O)N[C@H](C(=O)N[C@H](CCCCN)C(=O)N[C@H](C(=O)N[C@@H](CC(C)C)C(=O)N[C@@H](CC(C)C)C(N)=O)[C@@H](C)O)[C@@H](C)CC
Escherichia coli [25]
  MIC: 64 µM
Escherichia coli [26]
  MIC: 32 µM
Escherichia coli [27]
  MIC: 32 µM
Staphylococcus aureus [28]
  MIC: 128 µM
Staphylococcus aureus [29]
  MIC: 64 µM
Staphylococcus aureus [30]
  MIC: 64 µM
Escherichia coli [31]
  Activity: Active
Escherichia coli [32]
  MIC: 64 µM
Escherichia coli [33]
  MIC: 64 µM

## CCCCCCCCCCCC(=O)NC(Cc1cn(CCCC[C@H](NC(C)=O)C(=O)NCC(=O)N[C@@H](CC(C)C)C(=O)N[C@@H](CC(C)C)C(=O)N[C@H](CCCCN)C(=O)N[C@@H](CCCNC(=N)N)C(=O)N[C@H](C(=O)N[C@H](CCCCN)C(=O)N[C@H](C(=O)N[C@@H](CC(C)C)C(=O)N[C@@H](CC(C)C)C(N)=O)[C@@H](C)O)[C@@H](C)CC)nn1)C(=O)NCC(=O)N[C@@H](CC(C)C)C(=O)N[C@@H](CC(C)C)C(=O)N[C@H](CCCCN)C(=O)N[C@@H](CCCNC(=N)N)C(=O)N[C@H](C(=O)N[C@H](CCCCN)C(=O)N[C@H](C(=O)N[C@@H](CC(C)C)C(=O)N[C@@H](CC(C)C)C(N)=O)[C@@H](C)O)[C@@H](C)CC (stereo partly specified)
Escherichia coli [34]
  Activity: Active
DNA
  Activity: inactive
